What was measured:
Type in all cases: in vivo
[1] = test system: bermudagrass (Cynodon dactylon); experiment: Test B pre-/postemergence plant response
Description: (§1) Seeds of plant species selected from blackgrass (Alopecurus myosuroides), downy bromegrass (Bromus tectorum), green foxtail (Setaria viridis), Italian ryegrass (Lolium multiflorum), wheat (Triticum aestivum), wild oat (Avena fatua), deadnettle (henbit deadnettle, Lamium amplexicaule), galium (catchweed bedstraw, Galium aparine), bermudagrass (Cynodon dactylon), Surinam grass (Brachiaria decumbens), cocklebur (Xanthium strumarium), corn (Zea mays), large crabgrass (Digitaria sanguinalis), woolly cupgrass (Eriochloa villosa), giant foxtail (Setaria faberii), goosegrass (Eleusine indica), johnsongrass (Sorghum halepense), kochia (Kochia scoparia), lambsquarters (Chenopodium album), morningglory (Ipomoea coccinea), nightshade (eastern black nightshade, Solanum ptycanthum), yellow nutsedge (Cyperus esculentus), pigweed (Amaranthus retroflexus), ragweed (common ragweed, Ambrosia elatior), Russian thistle (Salsola kali), soybean (Glycine max), sunflower (common oilseed sunflower, Helianthus annuus) and velvetleaf (Abutilon theophrasti) were planted into a blend of loam soil and sand and treated preemergence with test compounds formulated in a non-phytotoxic solvent mixture which included a surfactant.
(§2) At the same time, plants selected from these crop and weed species and also winter barley (Hordeum vulgare), canarygrass (Phalaris minor), chickweed (Stellaria media) and windgrass (Apera spica-venti) were planted in pots containing Redi-Earth® planting medium (Scotts Company, 14111 Scottslawn Road, Marysville, Ohio 43041) comprising spaghnum peat moss, vermiculite, wetting agent and starter nutrients and treated with postemergence applications of some of the test chemicals formulated in the same manner. Plants ranged in height from 2 to 18 cm (1- to 4-leaf stage) for postemergence treatments.
(§3) Treated plants and controls were maintained in a greenhouse for 13 to 15 days, after which time all treated plants were visually evaluated and compared to controls. Plant response ratings, summarized in Table B, are based on a scale of 0 to 100 where 0 is no effect and 100 is complete control. A dash (-) response means no test result.

[2] = test system: blackgrass (Alopecurus myosuroides); experiment: Test B pre-/postemergence plant response
Description: as §1, §2, §3

[3] = test system: cocklebur (Xanthium strumarium); experiment: Test B pre-/postemergence plant response
Description: as §1, §2, §3

corn (Zea mays) = experiment: Test B pre-/postemergence plant response
Description: as §1, §2, §3

[4] = test system: giant foxtail (Setaria faberii); experiment: Test B pre-/postemergence plant response
Description: as §1, §2, §3

[5] = test system: johnsongrass (Sorghum halepense); experiment: Test B pre-/postemergence plant response
Description: as §1, §2, §3

kochia (Kochia scoparia) = experiment: Test B pre-/postemergence plant response; conditions: Postemergence; for Plant response rating, Kochia: scale 0 (no effect) to 100 (complete control); for Kochia plant response rating: 250 g ai/ha, scale 0 to 100
Description: as §1, §2, §3

[6] = test system: morningglory (Ipomoea coccinea); experiment: Test B pre-/postemergence plant response
Description: as §1, §2, §3

soybean (Glycine max) = experiment: Test B pre-/postemergence plant response
Description: as §1, §2, §3

wild oat (Avena fatua) = experiment: Test B pre-/postemergence plant response
Description: as §1, §2, §3

[7] = test system: canarygrass (Phalaris minor); experiment: Test B postemergence plant response; conditions: Postemergence; for Canarygrass plant response rating: 250 g ai/ha, scale 0 to 100
Outline: (§4)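 Plants grown in peat/vermiculite medium were sprayed postemergence at 2–18 cm height (1- to 4-leaf stage). After 13–15 days in the greenhouse, response was rated visually against untreated controls on a 0–100 scale (0 no effect, 100 complete control).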

[8] = test system: chickweed (Stellaria media); experiment: Test B postemergence plant response; conditions: Postemergence; for Chickweed plant response rating: 250 g ai/ha, scale 0 to 100
Outline: as §4

[9] = test system: windgrass (Apera spica-venti); experiment: Test B postemergence plant response; conditions: Postemergence, scale 0 (no effect) to 100 (complete control)
Outline: as §4

[10] = test system: winter barley (Hordeum vulgare); experiment: Test B postemergence plant response; conditions: Postemergence; for Barley plant response rating: 250 g ai/ha, scale 0 to 100
Outline: as §4

[11] = 250 g ai/ha, Preemergence, 0 to 100 scale
[12] = Postemergence, 31 g ai/ha, scale 0 to 100 (0 no effect, 100 complete control)
[13] = Postemergence, 62 g ai/ha, scale 0 (no effect) to 100 (complete control), 13 to 15 days
[14] = Postemergence, 125 g ai/ha, visual rating after 13 to 15 days, scale 0 (no effect) to 100 (complete control)
[15] = Postemergence, 250 g ai/ha, scale 0 to 100
[16] = Preemergence, 31 g ai/ha, scale 0 to 100 (0 no effect, 100 complete control)
[17] = Preemergence, 62 g ai/ha, scale 0 to 100 (0 no effect, 100 complete control)
[18] = Preemergence, 125 g ai/ha, 0 to 100 scale
[19] = 125 g ai/ha, visual rating after 13 to 15 days
[20] = 31 g ai/ha, scale 0 to 100 (0 no effect, 100 complete control)
[21] = 62 g ai/ha, scale 0 (no effect) to 100 (complete control), 13 to 15 days
[22] = 125 g ai/ha, visual rating after 13 to 15 days, scale 0 (no effect) to 100 (complete control)

SMILES: Cc1ccc(F)cc1-n1c(-c2ccccc2)ncc(C(=O)C2=C(O)CCCC2=O)c1=O [Compound 44]
- Plant response rating, Bermudagrass [1, 11]: 100
- Plant response rating, Bermudagrass [1, 12]: 80
- Plant response rating, Bermudagrass [1, 13]: 95
- Plant response rating, Bermudagrass [1, 14]: 95
- Bermudagrass plant response rating [1, 15]: 98
- Plant response rating, Bermudagrass [1, 16]: 100
- Plant response rating, Bermudagrass [1, 17]: 100
- Bermudagrass plant response rating [1, 18]: 100
- Plant response rating, Blackgrass [2, 11]: 60
- Plant response rating, Blackgrass [2, 12]: 0
- Plant response rating, Blackgrass [2, 13]: 10
- Plant response rating, Blackgrass [2, 14]: 30
- Blackgrass plant response rating [2, 15]: 30
- Plant response rating, Blackgrass [2, 16]: 5
- Plant response rating, Blackgrass [2, 17]: 30
- Blackgrass plant response rating [2, 18]: 40
- Plant response rating, Cocklebur [3, 11]: 45
- Plant response rating, Cocklebur [3, 12]: 80
- Plant response rating, Cocklebur [3, 13]: 80
- Plant response rating, Cocklebur [3, 14]: 90
- Cocklebur plant response rating [3, 15]: 98
- Plant response rating, Corn (corn (Zea mays); [11]): 0
- Plant response rating, Corn (corn (Zea mays); [12]): 75
- Plant response rating, Corn (corn (Zea mays); [13]): 80
- Plant response rating, Corn (corn (Zea mays); [14]): 80
- Corn plant response rating (corn (Zea mays); [15]): 85
- Plant response rating, Corn (corn (Zea mays); [16]): 0
- Plant response rating, Corn (corn (Zea mays); [17]): 0
- Corn plant response rating (corn (Zea mays); [18]): 0
- Plant response rating, Foxtail, Giant [4, 11]: 98
- Plant response rating, Foxtail, Giant [4, 12]: 95
- Plant response rating, Foxtail, Giant [4, 13]: 95
- Plant response rating, Foxtail, Giant [4, 14]: 95
- Foxtail, Giant plant response rating [4, 15]: 98
- Plant response rating, Foxtail, Giant [4, 16]: 20
- Plant response rating, Foxtail, Giant [4, 17]: 45
- Foxtail, Giant plant response rating [4, 18]: 75
- Plant response rating, Johnsongrass [5, 11]: 95
- Plant response rating, Johnsongrass [5, 13]: 70
- Plant response rating, Johnsongrass [5, 14]: 90
- Johnsongrass plant response rating [5, 15]: 95
- Plant response rating, Johnsongrass [5, 16]: 10
- Plant response rating, Johnsongrass [5, 17]: 75
- Johnsongrass plant response rating [5, 18]: 90
- Plant response rating, Kochia (kochia (Kochia scoparia); 62 g ai/ha, 13 to 15 days): 75
- Plant response rating, Kochia (kochia (Kochia scoparia); [19]): 75
- Kochia plant response rating (kochia (Kochia scoparia)): 95
- Plant response rating, Morningglory [6, 11]: 95
- Plant response rating, Morningglory [6, 13]: 70
- Plant response rating, Morningglory [6, 14]: 75
- Plant response rating, Morningglory [6, 16]: 0
- Plant response rating, Morningglory [6, 17]: 0
- Morningglory plant response rating [6, 18]: 50
- Plant response rating, Soybean (soybean (Glycine max); [11]): 0
- Plant response rating, Soybean (soybean (Glycine max); [13]): 95
- Plant response rating, Soybean (soybean (Glycine max); [14]): 95
- Plant response rating, Soybean (soybean (Glycine max); [16]): 0
- Soybean plant response rating (soybean (Glycine max); [18]): 0
- Plant response rating, Oat, Wild (wild oat (Avena fatua); [11]): 30
- Plant response rating, Oat, Wild (wild oat (Avena fatua); [13]): 80
- Plant response rating, Oat, Wild (wild oat (Avena fatua); [14]): 80
- Plant response rating, Oat, Wild (wild oat (Avena fatua); [16]): 0
- Oat, Wild plant response rating (wild oat (Avena fatua); [18]): 5
- Plant response rating, Canarygrass [7, 20]: 20
- Plant response rating, Canarygrass [7, 21]: 20
- Plant response rating, Canarygrass [7, 22]: 30
- Canarygrass plant response rating [7]: 40
- Plant response rating, Chickweed [8, 20]: 90
- Plant response rating, Chickweed [8, 21]: 95
- Plant response rating, Chickweed [8, 22]: 98
- Chickweed plant response rating [8]: 100
- Plant response rating, Windgrass ([9]; 62 g ai/ha, 13 to 15 days): 70
- Plant response rating, Windgrass [9, 19]: 85
- Plant response rating, Barley [10, 20]: 0
- Plant response rating, Barley [10, 21]: 0
- Plant response rating, Barley [10, 22]: 5
- Barley plant response rating [10]: 15

SMILES: Cc1cccc(Cl)c1-n1c(-c2ccccc2)ncc(C(=O)C2=C(O)CCCC2=O)c1=O [Compound 46]
- Plant response rating, Bermudagrass [1, 11]: 98
- Plant response rating, Bermudagrass [1, 12]: 80
- Plant response rating, Bermudagrass [1, 13]: 85
- Plant response rating, Bermudagrass [1, 14]: 90
- Bermudagrass plant response rating [1, 15]: 90
- Plant response rating, Bermudagrass [1, 16]: 0
- Plant response rating, Blackgrass [2, 11]: 0
- Plant response rating, Blackgrass [2, 12]: 0
- Plant response rating, Blackgrass [2, 13]: 5
- Plant response rating, Blackgrass [2, 14]: 10
- Blackgrass plant response rating [2, 15]: 10
- Plant response rating, Blackgrass [2, 16]: 0
- Plant response rating, Blackgrass [2, 17]: 0
- Blackgrass plant response rating [2, 18]: 0
- Plant response rating, Cocklebur [3, 11]: 15
- Plant response rating, Cocklebur [3, 12]: 75
- Plant response rating, Cocklebur [3, 13]: 80
- Plant response rating, Cocklebur [3, 14]: 80
- Cocklebur plant response rating [3, 15]: 90
- Plant response rating, Cocklebur [3, 16]: 0
- Plant response rating, Cocklebur [3, 17]: 0
- Cocklebur plant response rating [3, 18]: 0
- Plant response rating, Corn (corn (Zea mays); [11]): 0
- Plant response rating, Corn (corn (Zea mays); [12]): 20
- Plant response rating, Corn (corn (Zea mays); [13]): 35
- Plant response rating, Corn (corn (Zea mays); [14]): 60
- Corn plant response rating (corn (Zea mays); [15]): 75
- Plant response rating, Corn (corn (Zea mays); [16]): 0
- Plant response rating, Corn (corn (Zea mays); [17]): 0
- Corn plant response rating (corn (Zea mays); [18]): 0
- Plant response rating, Foxtail, Giant [4, 11]: 25
- Plant response rating, Foxtail, Giant [4, 12]: 70
- Plant response rating, Foxtail, Giant [4, 13]: 80
- Plant response rating, Foxtail, Giant [4, 14]: 80
- Foxtail, Giant plant response rating [4, 15]: 85
- Plant response rating, Foxtail, Giant [4, 16]: 0
- Plant response rating, Foxtail, Giant [4, 17]: 0
- Foxtail, Giant plant response rating [4, 18]: 15
- Plant response rating, Johnsongrass [5, 11]: 70
- Plant response rating, Johnsongrass [5, 13]: 50
- Plant response rating, Johnsongrass [5, 14]: 70
- Johnsongrass plant response rating [5, 15]: 75
- Plant response rating, Johnsongrass [5, 16]: 0
- Plant response rating, Johnsongrass [5, 17]: 10
- Johnsongrass plant response rating [5, 18]: 45
- Plant response rating, Kochia (kochia (Kochia scoparia); 62 g ai/ha, 13 to 15 days): 0
- Plant response rating, Kochia (kochia (Kochia scoparia); [19]): 20
- Kochia plant response rating (kochia (Kochia scoparia)): 30
- Plant response rating, Morningglory [6, 11]: 0
- Plant response rating, Morningglory [6, 13]: 30
- Plant response rating, Morningglory [6, 14]: 45
- Plant response rating, Morningglory [6, 16]: 0
- Plant response rating, Morningglory [6, 17]: 0
- Morningglory plant response rating [6, 18]: 0
- Plant response rating, Soybean (soybean (Glycine max); [11]): 25
- Plant response rating, Soybean (soybean (Glycine max); [13]): 80
- Plant response rating, Soybean (soybean (Glycine max); [14]): 90
- Plant response rating, Soybean (soybean (Glycine max); [16]): 0
- Soybean plant response rating (soybean (Glycine max); [18]): 15
- Plant response rating, Oat, Wild (wild oat (Avena fatua); [11]): 0
- Plant response rating, Oat, Wild (wild oat (Avena fatua); [13]): 5
- Plant response rating, Oat, Wild (wild oat (Avena fatua); [14]): 20
- Plant response rating, Oat, Wild (wild oat (Avena fatua); [16]): 0
- Oat, Wild plant response rating (wild oat (Avena fatua); [18]): 0
- Plant response rating, Canarygrass [7, 20]: 0
- Plant response rating, Canarygrass [7, 21]: 0
- Plant response rating, Canarygrass [7, 22]: 0
- Canarygrass plant response rating [7]: 0
- Plant response rating, Chickweed [8, 20]: 80
- Plant response rating, Chickweed [8, 21]: 95
- Plant response rating, Chickweed [8, 22]: 95
- Chickweed plant response rating [8]: 98
- Plant response rating, Windgrass ([9]; 62 g ai/ha, 13 to 15 days): 10
- Plant response rating, Windgrass [9, 19]: 15
- Plant response rating, Barley [10, 20]: 0
- Plant response rating, Barley [10, 21]: 0
- Plant response rating, Barley [10, 22]: 0
- Barley plant response rating [10]: 0

— patent US8952024B2, “Herbicidal pyrimidone derivatives” (E I du Pont de Nemours and Company, priority 2009, dated 2015)
